{"source": "patent US20210115268A1", "about": "“FUNCTIONALIZED QUATERNARY AMMONIUM HALIDES AND USE THEREOF” (Agency for Science, Technology and Research, priority 2015, published 2021)", "origin": "cited, not measured here", "conditions": "glass, cotton, polyester fibers or polyurethane foams treated with the silane; after repeated washings"}
{"smiles": "CCCCCCCCCCCCCCCCCC[N+](C)(C)CCC[Si](OC)(OC)OC.[Cl-]", "note": "[DC 5700, (MeO)3Si(CH2)3N^+Me2C18H37Cl]", "values": [{"measurement": "algicidal and bactericidal properties, leaching", "value": "showed algicidal and bactericidal properties that are maintained after repeated washings and no apparent leaching was observed"}]}
